Measurements taken from US6399773B1, “Compounds derived from an amine nucleus that are inhibitors of IMPDH enzyme” (Bristol-Myers Squibb Co., priority 1998, dated 2002).

| melting point | Structure (SMILES) |
| --- | --- |
| 173 to 175 °C | COc1cc(Nc2cc(-c3ccccc3)on2)ccc1-c1cnco1 [Example 31, N-[3-Methoxy-4-(5-oxazolyl)phenyl]-5-phenyl-3-isoxazolamine] |
| 260 to 261 °C | COc1cc(Nc2nsc(-c3ccccc3)n2)ccc1-c1cnco1 [Example 30, N-[3-Methoxy-4-(5-oxazolyl)phenyl]-5-phenyl-1,2,4-thiadiazol-3-amine] |
| 212 to 215 °C | COc1cc(Nc2ncc(-c3ccccc3)o2)ccc1-c1cnco1 [Example 34, N-[3-Methoxy-4-(5-oxazolyl)phenyl]-5-phenyl-2-oxazolamine] |
| 271 to 274 °C | COc1cc(Nc2ncc(-c3ccccc3C(=O)O)o2)ccc1-c1cnco1 [Example 80, 2-[2-[[3-Methoxy-4-(5-oxazolyl)phenyl]amino]-5-oxazolyl]benzoic acid] |
| 171 to 173 °C | COc1cc(Nc2cccc(-c3ccccc3)c2)ccc1-c1cnco1 [Example 29, N-[3-Methoxy-4-(5-oxazolyl)phenyl][1,1′-biphenyl]-3-amine] |
| 179 to 181 °C | COc1cc(Nc2ncc(-c3ccccc3N(C)C(=O)CN3CCOCC3)o2)ccc1-c1cnco1 [Example 79, N-[2-[2-[[3-Methoxy-4-(5-oxazolyl)phenyl]amino]-5-oxazolyl]phenyl]-N-methyl-4-morpholineacetamide] |
